Reference: US20260060250A1, “HERBICIDAL PYRIDONE DERIVATIVES” (SYNGENTA CROP PROTECTION AG, priority 2022, published 2026)

Experiments:
Format in all cases: in vivo
Conditions in all cases: 1000 g/ha, evaluated after 13 days
[1] = system: Amaranthus palmeri (AMAPA); assay: Pre-emergence Test (Table B1)
[2] = system: Setaria faberi (SETFA); assay: Pre-emergence Test (Table B1); parameters: key: 5=81-100%; 4=61-80%; 3=41-60%; 2=21-40%; 1=0-20%; 0=inactive
[3] = system: Echinochloa crus-galli (ECHCG); assay: Pre-emergence Test (Table B1); parameters: key: 5=81-100%; 4=61-80%; 3=41-60%; 2=21-40%; 1=0-20%; 0=inactive
[4] = system: Amaranthus retroflexus (AMARE); assay: Pre-emergence Test (Table B1)
[5] = system: Zea mays (ZEAMX); assay: Pre-emergence Test (Table B1); parameters: key: 5=81-100%; 4=61-80%; 3=41-60%; 2=21-40%; 1=0-20%; 0=inactive
[6] = system: Ipomoea hederacea (IPOHE); assay: Pre-emergence Test (Table B1); parameters: key: 5=81-100%; 4=61-80%; 3=41-60%; 2=21-40%; 1=0-20%; 0=inactive
[7] = system: Amaranthus palmeri (AMAPA); assay: Post-emergence Test (Table B2)
Procedure: (§1) Seeds of a variety of test species are sown in standard soil in pots (Amaranthus palmeri (AMAPA), Setaria faberi (SETFA), Echinochloa crus-galli (ECHCG), (Amaranthus retroflexus (AMARE), Zea mays (ZEAMX), Ipomoea hederacea (IPOHE)). After 8 days cultivation under controlled conditions in a glasshouse (at 24° C./16° C., day/night; 14 hours light; 65% humidity), the plants are sprayed with an aqueous spray solution derived from the formulation of the technical active ingredient in acetone/water (50:50) solution containing 0.5% Tween 20 (polyoxyethelyene sorbitan monolaurate, CAS RN 9005-64-5). Compounds are applied at 1000 g/ha unless otherwise stated. The test plants are then grown in a glasshouse under controlled conditions in a glasshouse (at 24° C./16° C., day/night; 14 hours light; 65% humidity) and watered twice daily. After 13 days the test is evaluated for the percentage damage caused to the plant.

[8] = system: Amaranthus retroflexus (AMARE); assay: Post-emergence Test (Table B2)
Procedure: as §1

[9] = system: Setaria faberi (SETFA); assay: Post-emergence Test (Table B2)
Procedure: as §1

[10] = system: Echinochloa crus-galli (ECHCG); assay: Post-emergence Test (Table B2); parameters: key: 5=81-100%; 4=61-80%; 3=41-60%; 2=21-40%; 1=0-20%; 0=inactive
Procedure: as §1

[11] = system: Ipomoea hederacea (IPOHE); assay: Post-emergence Test (Table B2); parameters: key: 5=81-100%; 4=61-80%; 3=41-60%; 2=21-40%; 1=0-20%; 0=inactive
Procedure: as §1

[12] = system: Zea mays (ZEAMX); assay: Post-emergence Test (Table B2); parameters: key: 5=81-100%; 4=61-80%; 3=41-60%; 2=21-40%; 1=0-20%; 0=inactive
Procedure: as §1

Row | SMILES | percentage damage caused to the plant, AMAPA [1] | percentage damage caused to the plant, SETFA [2] | percentage damage caused to the plant, ECHCG [3] | percentage damage caused to the plant, AMARE [4] | percentage damage caused to the plant, ZEAMX [5] | percentage damage caused to the plant, IPOHE [6] | percentage damage caused to the plant, AMAPA [7] | percentage damage caused to the plant, AMARE [8] | percentage damage caused to the plant, SETFA [9] | percentage damage caused to the plant, ECHCG [10] | percentage damage caused to the plant, IPOHE [11] | percentage damage caused to the plant, ZEAMX [12]
1 | CCn1c(C)c(-c2cc(C(=O)OC(C)CF)ccc2F)c(=O)c(C(=O)O)c1-c1ccc(Cl)c(Cl)c1 (stereo not drawn) [Compound 9, 2-(3,4-dichlorophenyl)-1-ethyl-5-[2-fluoro-5-(2-fluoro-1-methyl-ethoxy)carbonyl-phenyl]-6-methyl-4-oxo-pyridine-3-carboxylic acid] | 5 (5=81-100%) | 2 (2=21-40%) | 1 (1=0-20%) | 5 (5=81-100%) | 1 (1=0-20%) | 0 | 4 (4=61-80%) | 5 (5=81-100%) | 3 (3=41-60%) | 2 (2=21-40%) | 1 (1=0-20%) | 2 (2=21-40%)
2 | CCn1c(C)c(-c2cc(C(=O)OC(C)C(C)=O)ccc2F)c(=O)c(C(=O)O)c1-c1ccc(Cl)c(Cl)c1 (stereo not drawn) [Compound 10, 2-(3,4-dichlorophenyl)-1-ethyl-5-[2-fluoro-5-(1-methyl-2-oxo-propoxy)carbonyl-phenyl]-6-methyl-4-oxo-pyridine-3-carboxylic acid] | 5 (5=81-100%) | 0 | 0 | 5 (5=81-100%) | 0 | 0 | 5 (5=81-100%) | 5 (5=81-100%) | 4 (4=61-80%) | 2 (2=21-40%) | 1 (1=0-20%) | 3 (3=41-60%)
3 | CCC#CC(C)OC(=O)c1ccc(F)c(-c2c(C)n(CC)c(-c3ccc(Cl)c(Cl)c3)c(C(=O)O)c2=O)c1 (stereo not drawn) [Compound 11, 2-(3,4-dichlorophenyl)-1-ethyl-5-[2-fluoro-5-(1-methylpent-2-ynoxycarbonyl)phenyl]-6-methyl-4-oxo-pyridine-3-carboxylic acid] | 5 (5=81-100%) | 0 | 0 | 5 (5=81-100%) | 0 | 0 | 5 (5=81-100%) | 5 (5=81-100%) | 4 (4=61-80%) | 4 (4=61-80%) | 3 (3=41-60%) | 2 (2=21-40%)
4 | C#CC(C)OC(=O)c1ccc(F)c(-c2c(C)n(CC)c(-c3ccc(Cl)c(Cl)c3)c(C(=O)O)c2=O)c1 (stereo not drawn) [Compound 12, 2-(3,4-dichlorophenyl)-1-ethyl-5-[2-fluoro-5-(1-methylprop-2-ynoxycarbonyl)phenyl]-6-methyl-4-oxo-pyridine-3-carboxylic acid] | 4 (4=61-80%) | 4 (4=61-80%) | 3 (3=41-60%) | 5 (5=81-100%) | 1 (1=0-20%) | 1 (1=0-20%) | 5 (5=81-100%) | 5 (5=81-100%) | 5 (5=81-100%) | 4 (4=61-80%) | 2 (2=21-40%) | 3 (3=41-60%)
5 | C=CCC(C)OC(=O)c1ccc(F)c(-c2c(C)n(CC)c(-c3ccc(Cl)c(Cl)c3)c(C(=O)O)c2=O)c1 (stereo not drawn) [Compound 13, 2-(3,4-dichlorophenyl)-1-ethyl-5-[2-fluoro-5-(1-methylbut-3-enoxycarbonyl)phenyl]-6-methyl-4-oxo-pyridine-3-carboxylic acid] | 4 (4=61-80%) | 2 (2=21-40%) | 1 (1=0-20%) | 4 (4=61-80%) | 0 | 0 | 4 (4=61-80%) | 4 (4=61-80%) | 2 (2=21-40%) | 1 (1=0-20%) | 2 (2=21-40%) | 2 (2=21-40%)
6 | CCOCC(C)OC(=O)c1ccc(F)c(-c2c(C)n(CC)c(-c3ccc(Cl)c(Cl)c3)c(C(=O)O)c2=O)c1 (stereo not drawn) [Compound 14, 2-(3,4-dichlorophenyl)-5-[5-(2-ethoxy-1-methyl-ethoxy)carbonyl-2-fluoro-phenyl]-1-ethyl-6-methyl-4-oxo-pyridine-3-carboxylic acid] | 5 (5=81-100%) | 3 (3=41-60%) | 0 | 5 (5=81-100%) | 0 | 0 | 5 (5=81-100%) | 5 (5=81-100%) | 3 (3=41-60%) | 3 (3=41-60%) | 0 | 1 (1=0-20%)
7 | CC#CC(C)OC(=O)c1ccc(F)c(-c2c(C)n(CC)c(-c3ccc(Cl)c(Cl)c3)c(C(=O)O)c2=O)c1 (stereo not drawn) [Compound 15, 2-(3,4-dichlorophenyl)-1-ethyl-5-[2-fluoro-5-(1-methylbut-2-ynoxycarbonyl)phenyl]-6-methyl-4-oxo-pyridine-3-carboxylic acid] | 5 (5=81-100%) | 0 | 0 | 5 (5=81-100%) | 0 | 0 | 5 (5=81-100%) | 5 (5=81-100%) | 5 (5=81-100%) | 5 (5=81-100%) | 2 (2=21-40%) | 4 (4=61-80%)
8 | C#CC(C)OC(=O)c1cc(-c2c(C)n(CC)c(-c3ccc(Cl)c(Cl)c3)c(C(=O)O)c2=O)c(F)cc1Cl (stereo not drawn) [Compound 20, 5-[4-chloro-2-fluoro-5-(1-methylprop-2-ynoxycarbonyl)phenyl]-2-(3,4-dichlorophenyl)-1-ethyl-6-methyl-4-oxo-pyridine-3-carboxylic acid] | 5 (5=81-100%) | 3 (3=41-60%) | 3 (3=41-60%) | 5 (5=81-100%) | 0 | 0 | 5 (5=81-100%) | 5 (5=81-100%) | 5 (5=81-100%) | 5 (5=81-100%) | 4 (4=61-80%) | 4 (4=61-80%)
